Assay results from paper PMC3288537 (ACS Chemical Biology, 2011).

Molecular target: T1, HePTP (Homo sapiens, UniProt P35236)
T1 sequence (P35236 1-360): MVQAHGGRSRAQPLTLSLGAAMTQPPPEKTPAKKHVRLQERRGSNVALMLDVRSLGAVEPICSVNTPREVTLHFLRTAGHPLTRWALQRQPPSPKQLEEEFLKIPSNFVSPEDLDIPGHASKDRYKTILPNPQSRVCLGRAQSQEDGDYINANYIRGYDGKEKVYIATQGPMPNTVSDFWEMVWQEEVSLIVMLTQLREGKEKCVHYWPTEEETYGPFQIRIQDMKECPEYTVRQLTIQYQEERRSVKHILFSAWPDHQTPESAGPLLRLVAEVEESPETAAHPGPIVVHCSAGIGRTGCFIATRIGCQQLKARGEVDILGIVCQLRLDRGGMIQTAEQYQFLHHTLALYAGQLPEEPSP
Experiment: Dose-response OMFP phosphatase assay, HePTP
Type: biochemical
Details: OMFP substrate

O=C(O)c1ccccc1 [benzoic acid, reference compound]
activity against HePTP (in words): did not inhibit
